From patent US20090182040A1, “Method of Preventing or Reducing Insecticidal Resistance” (BASF SE, priority 2006, published 2009)

System: adult pollen beetles with resistance against pyrethroids
Assay: Field trial on a commercial oilseed rape field: spray treatment, count of living adult pollen beetles
Format: in vivo, Meligethes aeneus
Protocol: Experiments were carried out on a commercial oilseed rape field location previously confirmed to have adult pollen beetles with resistance against pyrethroids. The experiments were carried out according the GEP settings for field trial set up and corresponding assessment of the treatments. The lay-out was a standard randomized block de-sign with 4 replicates. The different treatments (see Table 1 below) were prepared by diluting the respective products in water by well homogenized standard stirring in order to spray the four replicates at a spray volume of 300 to 400 liter per ha. The products used were the commercial formulation Fastac® OESC (containing 100 g per liter alpha-cypermethrin) and an experimental liquid formulation (containing 303.5 g PBO on a weight per weight basis). The three combinations of Fastac® OESC and the PBO containing liquid formulation in the Table 1 below were made as a tank mix of a standard rate of Fastac® OESC and a varying rate for the PBO containing formulation. The treatments were sprayed on the plants and the adult pollen beetles present on the plant by means of a knapsack sprayer at standard air pressure. The treatments were applied shortly after each other by appropriate rinsing in between according the GEP standard procedure. The development growth stage of the oilseed rape according to the BBCH code at the time of the treatment was 50 to 59 (the abbreviation “BBCH” stands for the Biologische Bundesanstalt, Bundessortenamt and Chemische Industrie). Shortly before the treatment the present adult pollen beetles were assessed in counting the number of adult pollen beetles present on 50 inflorescences—randomly taken—in each of the replicates. The total number of adult pollen beetles on the 4 replicates was then divided by 4 to give the average number of living adult pollen beetles per 50 inflorescenses, mentioned in the Table 1 below. The same procedure was followed respectively 3 and 6 days after the treatment (DAT).

SMILES: CC1(C)C(C=C(Cl)Cl)C1C(=O)OC(C#N)c1cccc(Oc2ccccc2)c1 (stereo not drawn) [alpha-cypermethrin]
- Average number of living adult pollen beetles per 50 inflorescenses (alpha-cypermethrin 7.5 g a.i./ha, 0 DAT (count shortly before treatment), oilseed rape field, 4 replicates): 343
- Average number of living adult pollen beetles per 50 inflorescenses (alpha-cypermethrin 7.5 g a.i./ha, 3 DAT): 119
- Average number of living adult pollen beetles per 50 inflorescenses (alpha-cypermethrin 7.5 g a.i./ha, 6 DAT): 75
- Average number of living adult pollen beetles per 50 inflorescenses (alpha-cypermethrin 12.5 g a.i./ha, 0 DAT (count shortly before treatment)): 352
- Average number of living adult pollen beetles per 50 inflorescenses (alpha-cypermethrin 12.5 g a.i./ha, 3 DAT): 116
- Average number of living adult pollen beetles per 50 inflorescenses (alpha-cypermethrin 12.5 g a.i./ha, 6 DAT): 79
